# Measured values taken from US7259254B2, “Mutants and assay system to identify USP/RXR ligands” (University of Kentucky Research Foundation, priority 2002, dated 2007).
# Legend:
# [1] = tested on: Core promoter reporter with DR1, DR4 or DR12 nuclear hormone response element in Sf9 cells; conditions: previous studies; cited from earlier work
# P498W/P499W mutant USP = molecular target: T1, P498W/P499W mutant USP (Drosophila melanogaster, UniProt P20153, P498W/P499W); experiment: Intrinsic tryptophan fluorescence ligand-binding assay, P498W/P499W mutant USP; conditions: excitation 290 nm, emission 340 nm
# T1 construct: His tag; made in house; host or cells: bacteria (pET32EK vector)
# T1 sequence (P20153 whole entry P498W/P499W): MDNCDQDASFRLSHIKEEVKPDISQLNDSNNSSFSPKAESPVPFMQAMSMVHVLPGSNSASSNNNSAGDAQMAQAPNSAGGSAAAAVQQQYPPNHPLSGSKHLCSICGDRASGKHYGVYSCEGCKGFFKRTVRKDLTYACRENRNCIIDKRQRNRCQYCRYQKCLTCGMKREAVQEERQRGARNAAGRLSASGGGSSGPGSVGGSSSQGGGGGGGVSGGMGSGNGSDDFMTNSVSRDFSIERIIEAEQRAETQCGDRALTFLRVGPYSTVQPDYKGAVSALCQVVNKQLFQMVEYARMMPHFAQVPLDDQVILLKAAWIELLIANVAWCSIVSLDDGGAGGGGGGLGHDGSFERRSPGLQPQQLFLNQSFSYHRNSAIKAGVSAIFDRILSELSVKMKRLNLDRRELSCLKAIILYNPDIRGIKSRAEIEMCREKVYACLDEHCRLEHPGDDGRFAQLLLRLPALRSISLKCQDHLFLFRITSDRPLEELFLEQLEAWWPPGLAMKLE
# Method: The homodimer-enriched fraction of bacterial recombinant His-dUSP fusion protein was purified by nickel resin selection, elution with imidazole, centrifugal concentration, and then gel permeation chromatography (Superdex 200) with procedures and chemical sources exactly as already described previously Jones et al. (2000) Insect Biochem. Mol. Biol. 30, 671-679. The homodimer-enriched fraction of the purified His-USP fusion protein was raised to 2 ml of NaCl and a final concentration of 0.5 μm. For a fluorescence-based ligand-binding assay based on intrinsic tryptophan fluorescence Jones et al. (2001) Insect Biochem. Mol. Biol. 32, 33-49; Jones et al (1998) Biochem. J. 335, 79-84; 79-84; Jones et al. (2000) Biochem. J. 346, 233-240; Jones et al (1997) Proc. Natl. Acad. Sci. USA 94, 13499-13503, ligand or ethanol carrier was added and the receptor preparation excited at 290 nm and monitored for emission at 340 nm, until the signal from the receptor had stabilized. Fluorescence was measured three times for each sample, with standard deviation typically smaller than the graphical plotted datum point. Each fluorescence experiment was replicated on three or more independent occasions, each time with similar results. […]
# C472A/H475L mutant dUSP = molecular target: T2, C472A/H475L mutant dUSP (Drosophila melanogaster, UniProt P20153, C472A/H475L); experiment: Intrinsic tryptophan fluorescence ligand-binding assay, C472A/H475L mutant dUSP; conditions: 75 μm ligand; excitation 290 nm, emission 340 nm
# T2 construct: His tag; made in house; host or cells: bacteria (pET32EK vector)
# T2 sequence (P20153 whole entry C472A/H475L): as the sequence (P20153 whole entry P498W/P499W) above, with C472A, H475L, W498P, W499P counted along it
# Method: (§1) The homodimer-enriched fraction of bacterial recombinant His-dUSP fusion protein was purified by nickel resin selection, elution with imidazole, centrifugal concentration, and then gel permeation chromatography (Superdex 200) with procedures and chemical sources exactly as already described previously Jones et al. (2000) Insect Biochem. Mol. Biol. 30, 671-679. The homodimer-enriched fraction of the purified His-USP fusion protein was raised to 2 ml of NaCl and a final concentration of 0.5 μm. For a fluorescence-based ligand-binding assay based on intrinsic tryptophan fluorescence Jones et al. (2001) Insect Biochem. Mol. Biol. 32, 33-49; Jones et al (1998) Biochem. J. 335, 79-84; 79-84; Jones et al. (2000) Biochem. J. 346, 233-240; Jones et al (1997) Proc. Natl. Acad. Sci. USA 94, 13499-13503, ligand or ethanol carrier was added and the receptor preparation excited at 290 nm and monitored for emission at 340 nm, until the signal from the receptor had stabilized. Fluorescence was measured three times for each sample, with standard deviation typically smaller than the graphical plotted datum point. Each fluorescence experiment was replicated on three or more independent occasions, each time with similar results.
# (§2) The ability of the wild-type dUSP and dominant negative, ligand-binding pocket mutant dUSP to bind methyl epoxyfarnesoate was tested.
# [2] = tested on: Core promoter reporter with DR1, DR4 or DR12 nuclear hormone response element in Sf9 cells; experiment: Sf9 cell transfection assay: methyl epoxyfarnesoate activation of DR-enhancer/Core promoter luciferase reporter; format: cell-based, Spodoptera frugiperda; conditions: transfected Sf9 cells, 75 μm methyl epoxyfarnesoate
# Method: Spodoptera frugiperda cell line, Sf9, was maintained and transfected as described previously Jones et al (1998) Biochem. J. 335, 79-84; Jones et al. (2000) Biochem. J. 346, 233-240. As an internal control to compare activities of different constructs, 0.3 μg of a constituitive heat-shock promoter-driven β-galactosidase gene was cotransfected. To study the role of USP in activation of the nuclear hormone receptor response element fused to core promoter in methyl epoxyfarnesoate-treated cells, cloned D. melangaster USP (dUSP) cDNA and its derivatives containing mutations in the ligand-binding pocket were cotransfected with the reporter and internal control plasmids. […] After 48 h of the treatment, the cells were harvested and the activity of the luciferase reporter was measured using a luciferase assay kit (Promega) in a multipurpose scintillation counter (Beckman, Fullerton, Calif.). β-Galactosidase activity was measured using chlorophenol red-[…] monosodium (CPRG; Roche Molecular Biochemicals) as a colorimetric substrate.
# The sequences and characteristics of the core promoter ([…]) of the JHE gene were described by Jones et al. (2001) Insect Biochem. Mol. Biol. 32, 33-49; Jones et al (1998) Biochem. J. 335, 79-84; 79-84; Jones et al. (2000) Biochem. J. 346, 233-240. The core promoter responds to respond to methyl epoxyfarnesoate through a heterologous 5′ flanking direct repeat motif in cell transfection assay. This Core promoter reporter was cloned into KpnI/BglII sites of pGL3. An NheI site was then placed immediately 5′ to the KpnI site, and multiple direct repeat (DR) sequences were cloned into the NheI site by the following method. […] Upon annealing, the double stranded oligonucleotides would then have a CTAG overhang at each 5′ end. The annealed oligonucleotides were then ligated into concatamers, fractionated by native PAGE and the gel fractions corresponding to higher concatamer forms recovered and ligated into the NheI site. Specific DR sequences for the oligonucleotides were (upper strand) for DR1: 5′-CAAGGTCAAAGGTCAG-3′ (SEQ ID NO: 13), for DR4: 5′-CAAGGTCAAGAAAGGTCAG-3′ (SEQ ID NO: 14), for DR12: 5′-[…]-3′ (SEQ ID NO: 15; CTAG on 5′ ends not shown). The recovered YDRXCore constructs (X representing 1, 4 or 12 intervening bases; Y representing the number of tandem pairs of direct repeats) were verified by sequencing. The intervening sequences in the DR1 and DR4 motifs were randomly chosen, while the DR12 sequence used is found in the ecdysteroid-sensitive ng-1 and ng-2 genes that are expressed during metamorphosis of D. melanogaster, and can serve in vitro as a binding site for the various receptor dimers involving USP (ecdysteroid receptor (EcR)/USP heterodimer, USP/DHR38 heterodimer and USP/USP homodimer. […]
# [3] = molecular target: T3, His-tagged wild-type dUSP (Drosophila melanogaster, UniProt P20153); experiment: Intrinsic tryptophan fluorescence ligand-binding assay, wild-type dUSP; conditions: excitation 290 nm, emission 340 nm, 0.5 μm receptor
# T3 construct: His tag; made in house; host or cells: bacteria (pET32EK vector)
# T3 sequence (P20153 1-508): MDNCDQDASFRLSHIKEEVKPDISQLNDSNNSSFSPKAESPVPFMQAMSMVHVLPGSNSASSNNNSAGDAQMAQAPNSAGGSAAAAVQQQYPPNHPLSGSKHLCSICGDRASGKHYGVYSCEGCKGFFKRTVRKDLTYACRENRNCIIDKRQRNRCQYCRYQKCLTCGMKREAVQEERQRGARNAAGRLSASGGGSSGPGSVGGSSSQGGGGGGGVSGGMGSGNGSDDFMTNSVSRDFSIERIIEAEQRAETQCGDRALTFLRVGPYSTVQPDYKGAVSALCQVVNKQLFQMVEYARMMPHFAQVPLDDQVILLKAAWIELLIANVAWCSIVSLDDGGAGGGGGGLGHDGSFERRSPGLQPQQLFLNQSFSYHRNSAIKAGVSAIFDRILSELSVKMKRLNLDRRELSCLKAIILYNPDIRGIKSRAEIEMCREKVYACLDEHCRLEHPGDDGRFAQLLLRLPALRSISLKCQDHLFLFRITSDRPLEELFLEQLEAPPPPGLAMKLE
# Method: as §1, §2
structure (smiles),measurement,setting,value
COC(=O)C=C(C)CCC=C(C)CCC1OC1(C)C (stereo not drawn) [methyl epoxyfarnesoate],concentration of maximum effect (dose dependent),[1],~75 μm
same,"effect on receptor intrinsic fluorescence, P498W/P499W mutant USP",P498W/P499W mutant USP,sharply increasing in fluorescence before then decreasing
same,"effect on receptor intrinsic fluorescence (ligand binding), C472A/H475L mutant dUSP",C472A/H475L mutant dUSP,did not exhibit a significant response
same,"induction in promoter activity, four tandem copies of DR1 motif",[2],2.5 fold
same,"induction in promoter activity, four tandem copies of DR4 motif",[2],3.5 fold
same,responsiveness of 1DR12mutCore (both DR12 half sites mutated),[2],no greater than the background of a Core promoter with no enhancer
same,"induction in promoter activity, 4DR12Core construct",[2]; four tandem DR12 motifs,10 fold
same,"effect on receptor intrinsic fluorescence (ligand binding), wild-type dUSP",[3],suppressed the fluorescence
same,"effect on receptor intrinsic fluorescence (ligand binding), wild-type dUSP",[3]; listed as Methyl epoxyfarnesoate,suppression of receptor fluorescence
